Target: Trx-A-NMt-PCP (module 2 of the Sas17 NRPS protein) (Streptomyces calvus, UniProt A0A514JVM2)
Details: NMt domain; methyl donor for PCP-bound Tyr; 5 mM SAM, 1 h

Sequence of Trx-A-NMt-PCP (module 2 of the Sas17 NRPS protein) (A0A514JVM2 1553-2567): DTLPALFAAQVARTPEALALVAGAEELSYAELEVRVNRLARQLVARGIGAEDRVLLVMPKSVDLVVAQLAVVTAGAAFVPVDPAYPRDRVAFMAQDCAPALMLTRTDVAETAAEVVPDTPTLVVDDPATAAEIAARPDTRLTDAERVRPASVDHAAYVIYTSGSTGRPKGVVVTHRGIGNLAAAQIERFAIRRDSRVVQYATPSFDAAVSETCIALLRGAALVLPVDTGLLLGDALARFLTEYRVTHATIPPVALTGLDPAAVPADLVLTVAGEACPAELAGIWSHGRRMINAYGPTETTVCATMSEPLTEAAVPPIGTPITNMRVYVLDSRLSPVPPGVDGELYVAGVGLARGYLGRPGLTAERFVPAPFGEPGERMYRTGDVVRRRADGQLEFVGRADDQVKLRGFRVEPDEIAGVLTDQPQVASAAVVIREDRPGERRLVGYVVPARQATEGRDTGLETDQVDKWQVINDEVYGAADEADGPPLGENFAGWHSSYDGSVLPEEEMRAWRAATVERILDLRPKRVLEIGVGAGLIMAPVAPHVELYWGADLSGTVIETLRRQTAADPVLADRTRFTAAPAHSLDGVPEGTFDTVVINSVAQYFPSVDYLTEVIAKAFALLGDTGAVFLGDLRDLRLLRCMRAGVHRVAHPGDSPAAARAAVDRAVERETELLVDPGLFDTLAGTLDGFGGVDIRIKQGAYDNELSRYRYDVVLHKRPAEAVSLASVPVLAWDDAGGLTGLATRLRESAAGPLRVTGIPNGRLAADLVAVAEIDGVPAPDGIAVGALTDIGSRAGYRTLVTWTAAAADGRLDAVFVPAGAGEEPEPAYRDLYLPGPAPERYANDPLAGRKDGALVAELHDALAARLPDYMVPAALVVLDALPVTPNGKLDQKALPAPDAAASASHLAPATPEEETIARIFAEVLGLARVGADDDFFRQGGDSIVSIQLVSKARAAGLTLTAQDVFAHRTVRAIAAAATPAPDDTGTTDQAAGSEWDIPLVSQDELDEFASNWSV

In the case of `C[S+](CC[C@H](N)C(=O)O)C[C@H]1O[C@@H](n2cnc3c(N)ncnc32)[C@H](O)[C@@H]1O` (stereo partly shown) [SAM], the “LC-MS of methylamine-cleaved PCP thioester” value is reported as “Reconstitution of the Mt domain using SAM then led to the methylation of the PCP-bound”.
